# Measured values reported in patent EP4471049A1 (Zealand Pharma A/S, priority 2023, dated 2024).
# Read-outs that look alike come from different tables or passages of the source. *1 amine or outer side, *2 acyl side, *3 side chain or, on linkers, in order; H or OH if unused. Bridges are numbered along the chain shown (N, C = ends). Primed or numbered codes have the meaning given here. [ ]: non-standard residue; d: D form. 4‑Aminomethyl‑phenylacetyl = 4-aminomethyl-phenylacetyl unit, its amine closes the lactam, O=C(Cc1ccc(CN[*:1])cc1)[*:2]; Q(pyrrolidin)″ = (2S)-2-amino-5-oxo-5-pyrrolidin-1-yl-pentanoic acid, O=C(CC[C@H](N[*:1])C(=O)[*:2])N1CCCC1; αMeAla(3-pyridyl) = C[C@](N)(Cc1cccnc1)C(=O)O; 2Nal = N[C@@H](Cc1ccc2ccccc2c1)C(=O)O; AEF = NCCOc1ccc(C[C@H](N)C(=O)O)cc1; 3Pal = N[C@@H](Cc1cccnc1)C(=O)O; αMeL = CC(C)C[C@](C)(N)C(=O)O; Iso‑Dab = not defined here; Dab = NCC[C@H](N)C(=O)O
# T1: human IL-23R endogenously expressed on DB cells (human, UniProt Q5VWK5 24-629)
# T1 sequence (looked up): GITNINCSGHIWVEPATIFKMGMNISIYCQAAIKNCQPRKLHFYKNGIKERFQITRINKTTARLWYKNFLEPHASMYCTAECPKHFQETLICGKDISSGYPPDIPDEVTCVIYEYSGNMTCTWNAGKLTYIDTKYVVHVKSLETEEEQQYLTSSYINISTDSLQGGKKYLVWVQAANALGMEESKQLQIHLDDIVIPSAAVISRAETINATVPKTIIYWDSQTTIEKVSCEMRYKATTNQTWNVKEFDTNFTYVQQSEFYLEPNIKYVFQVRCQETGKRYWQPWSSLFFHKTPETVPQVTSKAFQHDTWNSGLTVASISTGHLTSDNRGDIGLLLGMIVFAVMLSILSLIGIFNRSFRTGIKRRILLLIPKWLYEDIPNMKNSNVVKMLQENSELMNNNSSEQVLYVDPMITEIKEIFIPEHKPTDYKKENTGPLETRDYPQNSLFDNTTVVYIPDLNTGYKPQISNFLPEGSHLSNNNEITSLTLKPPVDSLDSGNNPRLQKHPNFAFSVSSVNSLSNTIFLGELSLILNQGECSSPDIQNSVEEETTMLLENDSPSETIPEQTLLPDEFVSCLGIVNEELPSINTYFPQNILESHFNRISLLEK
# T2: Nluc-IL23R fusion protein (human, UniProt Q5VWK5 22-629)
# T2 construct: range 22-629; expressed with a secretion signal in HEK293 cells; used as crude membrane preparation; also called hIL-23R; human IL-23R; not shown: Nanoluc protein from the expression plasmid N1371 (Promega), N-terminal of IL-23R
# T2 sequence (looked up): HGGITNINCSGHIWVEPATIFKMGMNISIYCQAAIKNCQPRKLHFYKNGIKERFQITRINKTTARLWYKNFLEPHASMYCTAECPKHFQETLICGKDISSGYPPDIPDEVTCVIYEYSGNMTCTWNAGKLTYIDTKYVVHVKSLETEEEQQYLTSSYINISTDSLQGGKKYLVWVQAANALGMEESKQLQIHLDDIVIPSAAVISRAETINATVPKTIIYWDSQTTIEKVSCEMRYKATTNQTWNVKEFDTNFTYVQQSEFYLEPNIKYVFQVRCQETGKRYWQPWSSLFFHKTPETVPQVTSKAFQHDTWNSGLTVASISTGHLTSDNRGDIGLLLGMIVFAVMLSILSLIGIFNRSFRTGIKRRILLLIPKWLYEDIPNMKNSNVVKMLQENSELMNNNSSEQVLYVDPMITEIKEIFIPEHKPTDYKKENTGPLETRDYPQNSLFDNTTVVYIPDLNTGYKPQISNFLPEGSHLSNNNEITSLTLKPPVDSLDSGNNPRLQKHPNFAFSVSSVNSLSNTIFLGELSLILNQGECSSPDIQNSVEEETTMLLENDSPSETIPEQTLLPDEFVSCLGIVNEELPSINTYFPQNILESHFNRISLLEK
# How the values were obtained:
# [1] = test system: porcine pepsin (P7125, Sigma Aldrich); assay: SGF: sodium chloride, HCl, pH 1.2, with porcine pepsin (3.2 g/L); conditions: 37 °C, up to 4 hours
# [2] = test system: porcine pancreatin (P1625, Sigma Aldrich); assay: SIF: monobasic potassium phosphate, pH 6.8, with porcine pancreatin (10 g/L); conditions: 37 °C, up to 4 hours
# [3] = biological target: T1, human IL-23R endogenously expressed on …; assay: cell-based or functional assay
# [4] = biological target: T2, Nluc-IL23R fusion protein; assay: BRET competition vs TAMRA-labelled peptide, Nluc-IL23R membranes
# [5] = biological target: T2, Nluc-IL23R fusion protein; assay: as above; remark: listed apart in the source
Molecule,not cleaved [1],not cleaved [2],other results
[4-Aminomethyl-phenylacetyl](1c)*AE(2c)WQ[Dab](2c)[7-AzaTrp][2-Nal][Aib]E(1c)[Dab][3-(3-Pyridyl)-Ala],98% remaining after 4 h,92% remaining after 4 h,–
[4-Aminomethyl-phenylacetyl](1c)*AE(2c)WQ[Dab](2c)[7-F-Trp][2-Nal][Aib]E(1c)[Dab][3-(3-Pyridyl)-Ala],–,92% remaining after 4 h,–
[4-Aminomethyl-phenylacetyl](1c)*AE(2c)WQ[Dab](2c)[hPhe][2-Nal][Aib]E(1c)[Dab][3-(3-Pyridyl)-Ala],102% remaining after 4 h,95% remaining after 4 h,–
[4-Aminomethyl-phenylacetyl](1c)*SE(2c)WQ[Dab](2c)[Y(2-aminoethoxy)][2-Nal][2-Me-Leu]E(1c)[Dab][2-Me-3-(3-Pyridyl)-Ala]-[NH2],104% remaining after 4 h,109% remaining after 4 h,–
[4-Aminomethyl-phenylacetyl](1c)*SE(2c)WQ[Dab](2c)[Y(2-aminoethoxy)][2-Nal][2-Me-Leu]E(1c)[THP][3-(3-Pyridyl)-Ala],94% remaining after 4 h,96% remaining after 4 h,–
[4-Aminomethyl-phenylacetyl](1c)*SE(2c)W[Cit][Dab](2c)[Y(2-aminoethoxy)][2-Nal][2-Me-Leu]E(1c)[Dab][3-(3-Pyridyl)-Ala],99% remaining after 4 h,91% remaining after 4 h,–
[4-Aminomethyl-phenylacetyl](1c)*SE(2c)W[Dab(Ac)][Dab](2c)[Y(2-aminoethoxy)][2-Nal][2-Me-Leu]E(1c)[Dab][3-(3-Pyridyl)-Ala],–,91% remaining after 4 h,–
"[4‑Aminomethyl‑phenylacetyl]SEW[Q(pyrrolidin)″][Dab][AEF][2Nal][αMeL]E[Dab]-NH2 (lactam N-10, 3-6) [Ref 146]",–,–,hIL-23 (pSTAT3) antagonist % inhibition [3]: 98%; hIL-23 (pSTAT3) antagonist IC50 [3]: 42 nM; % displacement (hIL-23R binding) [4]: 105%
"[4‑Aminomethyl‑phenylacetyl]SEWQ[Dab][AEF][2Nal][αMeL]E[Iso‑Dab][αMeAla(3-pyridyl)]-NH2 (lactam N-10, 3-6; reading uncertain; also: iso-Dab11 joined via side-chain amine) [Compound 15]",–,–,hIL-23 (pSTAT3) antagonist % inhibition [3]: 97%; hIL-23 (pSTAT3) antagonist IC50 [3]: 12 nM; % displacement (hIL-23R binding) [4]: 96%
"H-ECWLCYYRNCNCM-NH2 (linker 5-10, 2-12 via 1,3‑dithio‑propan‑2‑one, compound from Heinis et al., 2020, synthesised for comparison) [I4 (isomer 3)]",–,–,hIL-23 (pSTAT3) antagonist % inhibition [3]: 23%; % displacement (hIL-23R binding) [5]: 84%
"[4‑Aminomethyl‑phenylacetyl]AEWQ[Dab][AEF][2Nal][αMeL]E[Dab][3Pal]-NHMe (lactam N-10, 3-6; SMILES CNC(=O)[C@H](Cc1cccnc1)NC(=O)[C@H](CCN)NC(=O)[C@@H]1CCC(=O)NCc2ccc(cc2)CC(=O)N[C@@H](C)C(=O)N[C@H]2CCC(=O)NCC[C@H](NC(=O)[C@H](CCC(N)=O)NC(=O)[C@H](Cc3c[nH]c4ccccc34)NC2=O)C(=O)N[C@@H](Cc2ccc(OCCN)cc2)C(=O)N[C@@H](Cc2ccc3ccccc3c2)C(=O)N[C@@](C)(CC(C)C)C(=O)N1) [Compound 20]",–,–,hIL-23 (pSTAT3) antagonist % inhibition [3]: 101%; hIL-23 (pSTAT3) antagonist IC50 [3]: 26 pM; % displacement (hIL-23R binding) [4]: 97%
"[4‑Aminomethyl‑phenylacetyl]SEWQ[Dab][AEF][2Nal][αMeL]E[Dab][H(Me)]-NH2 (lactam N-10, 3-6) [Compound 14]",–,–,hIL-23 (pSTAT3) antagonist % inhibition [3]: 99%; hIL-23 (pSTAT3) antagonist IC50 [3]: 7.2 nM; % displacement (hIL-23R binding) [4]: 102%; IC50 [4]: 0.11 nM

# The next lines start with results.
not cleaved [1],not cleaved [2],Molecule,other results
103% remaining after 4 h,90% remaining after 4 h,[4-Aminomethyl-phenylacetyl](1c)*AE(2c)WQ[Dab](2c)[Y(2-aminoethoxy)][2-Nal][2-Me-Leu]E(1c)[Dab][3-(3-Pyridyl)-Ala]-[NHMe],–
90% remaining after 4 h,–,[4-Aminomethyl-phenylacetyl](1c)*SE(2c)WQ[Dab](2c)[Y(2-aminoethoxy)][2-Nal][2-Me-Leu]E(1c)[Dab][3-(3-Pyridyl)-Ala]-[NH2],"cleaved bond [2]: Dab12-3Pal13, major"
–,105% remaining after 4 h,[4-Aminomethyl-phenylacetyl](1c)*SE(2c)WQ[Dab](2c)[Y(2-aminoethoxy)][2-Nal][2-Me-Leu]E(1c)[Dab][3-(3-Pyridyl)-Ala]-[NHMe],–
95% remaining after 4 h,105% remaining after 4 h,[4-Aminomethyl-phenylacetyl](1c)*SE(2c)WQ[Dab](2c)[Y(2-aminoethoxy)][2-Nal][2-Me-Leu]E(1c)[Dab][3-(3-Pyridyl)-Ala][Sar]-[NH2],–
97% remaining after 4 h,102% remaining after 4 h,[4-Aminomethyl-phenylacetyl](1c)*SE(2c)WQ[Dab](2c)[Y(2-aminoethoxy)][2-Nal][2-Me-Leu]E(1c)[Dab][3-(3-Pyridyl)-Ala][beta-hLeu]-[NH2],–
110% remaining after 4 h,110% remaining after 4 h,[4-Aminomethyl-phenylacetyl](1c)*SE(2c)W[Orn][Dab](2c)[Y(2-aminoethoxy)][2-Nal][2-Me-Leu]E(1c)[Dab][3-(3-Pyridyl)-Ala],–
–,94% remaining after 4 h,[4-Aminomethyl-phenylacetyl](1c)*SE(2c)W[Q(2Me)][Dab](2c)[Y(2-aminoethoxy)][2-Nal][2-Me-Leu]E(1c)[Dab][3-(3-Pyridyl)-Ala],–
90% remaining after 4 h,92% remaining after 4 h,[4-Aminomethyl-phenylacetyl](1c)*SE(2c)W[Q(Me)][Dab](2c)[Y(2-aminoethoxy)][2-Nal][2-Me-Leu]E(1c)[Dab][3-(3-Pyridyl)-Ala],–
